For experiment [1], the target named is T1, Protein arginine N-methyltransferase 5 (Homo sapiens, UniProt O14744). The experiment is described as follows: Inhibition of PRMT5 (unknown origin) assessed as reduction in methyl transfer from [3H]-SAM to biotinylated histone H4 peptide H4-20-Biotin at 10 uM pre-incubated for 3 mins before [3H]-SAM addition and measured after 45 mins by scintillation proximity assay.

The target of experiment [2] is T1, Protein arginine N-methyltransferase 5. As to the kind of experiment: Inhibition of PRMT5 (unknown origin) assessed as reduction in methyl transfer from [3H]-SAM to biotinylated histone H4 peptide H4-20-Biotin at 100 uM pre-incubated for 3 mins before [3H]-SAM addition and measured after 45 mins by scintillation proximity assay.
Experiment [3] deals with Protein arginine N-methyltransferase 1 (Homo sapiens, UniProt Q99873). The experiment is described as follows: Inhibition of PRMT1 (unknown origin) assessed as reduction in methyl transfer from [3H]-SAM to biotinylated histone H4 peptide H4-20-Biotin at 10 uM pre-incubated for 3 mins before [3H]-SAM addition and measured after 15 mins by scintillation proximity assay.
Experiment [4] deals with T1, Protein arginine N-methyltransferase 5. The experiment is described as follows: Inhibition of PRMT5 (unknown origin) assessed as reduction in methyl transfer from [3H]-SAM to biotinylated histone H4 peptide H4-20-Biotin pre-incubated for 3 mins before [3H]-SAM addition and measured after 45 mins by scintillation proximity assay.

Active and inactive are the calls of the source. The calls are words filed in the database; no cut-off is given here.

T1 sequence (O14744 whole entry): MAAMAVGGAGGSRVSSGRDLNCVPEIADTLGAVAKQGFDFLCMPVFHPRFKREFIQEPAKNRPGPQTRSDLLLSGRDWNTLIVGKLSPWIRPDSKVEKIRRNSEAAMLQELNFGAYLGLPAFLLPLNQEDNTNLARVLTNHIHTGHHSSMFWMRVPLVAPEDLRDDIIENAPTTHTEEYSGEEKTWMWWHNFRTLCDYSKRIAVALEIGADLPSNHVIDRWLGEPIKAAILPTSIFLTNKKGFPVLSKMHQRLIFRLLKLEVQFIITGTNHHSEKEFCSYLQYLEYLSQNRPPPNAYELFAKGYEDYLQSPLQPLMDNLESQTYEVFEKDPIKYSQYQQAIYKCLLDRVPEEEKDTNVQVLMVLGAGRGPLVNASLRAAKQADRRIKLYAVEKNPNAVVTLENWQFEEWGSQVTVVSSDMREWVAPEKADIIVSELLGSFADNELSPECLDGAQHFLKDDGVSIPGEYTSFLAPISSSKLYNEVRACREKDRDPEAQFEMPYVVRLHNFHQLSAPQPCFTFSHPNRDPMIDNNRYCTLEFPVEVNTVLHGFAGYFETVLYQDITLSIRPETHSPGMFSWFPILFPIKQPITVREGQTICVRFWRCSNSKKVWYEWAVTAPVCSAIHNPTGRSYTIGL
Protein arginine N-methyltransferase 1, sequence (Q99873 whole entry): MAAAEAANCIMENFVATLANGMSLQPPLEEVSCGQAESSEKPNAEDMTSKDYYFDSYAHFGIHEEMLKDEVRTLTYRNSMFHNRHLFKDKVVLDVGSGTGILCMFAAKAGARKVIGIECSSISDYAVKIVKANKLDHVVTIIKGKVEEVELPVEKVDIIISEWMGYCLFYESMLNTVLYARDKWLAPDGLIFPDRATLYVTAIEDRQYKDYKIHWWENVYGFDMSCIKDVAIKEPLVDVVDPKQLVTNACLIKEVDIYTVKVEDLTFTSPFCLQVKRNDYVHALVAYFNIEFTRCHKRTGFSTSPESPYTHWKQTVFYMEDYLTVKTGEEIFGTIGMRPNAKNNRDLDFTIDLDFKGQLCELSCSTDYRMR

Regarding `N=C(N)c1ccc(OCCCCOc2ccc(C(=N)N)cc2)cc1`, the inhibition entry in experiment [1] and in experiment [2] was “inactive” throughout.
For `N=C(N)c1ccc(OC/C=C/COc2ccc(C(=N)N)cc2)cc1`, the inhibition entry in experiment [1] and in experiment [2] was “inactive” each time.
Regarding `N=C(N)c1ccc(-c2ccc(-c3ccc(C(=N)N)cc3)o2)cc1` [FURAMIDINE], the inhibition in experiment [2] was found to be 50%. In addition, the concentration for half-maximal inhibition (IC50) in experiment [3] amounted to 22 µM; in experiment [4] it was 256 µM.
As to `N=C(N)c1ccc(OCCOc2ccc(C(=N)N)cc2)cc1`, the inhibition entry in experiment [1] and in experiment [2] was “inactive” each time.
Turning to `N=C(N)c1ccc(OCOc2ccc(C(=N)N)cc2)cc1`, in experiment [2], the inhibition worked out at 50%.
Consider `N=C(N)c1ccc(OCCCCCCOc2ccc(C(=N)N)cc2)cc1` [HEXAMIDINE], for which the inhibition entry in experiment [1] and in experiment [2] was “inactive” each time. Also, the half-maximal inhibitory concentration (IC50) in experiment [4] came to 357 µM.
As for `N=C(N)c1ccc(OCCCCCCCCCCOc2ccc(C(=N)N)cc2)cc1`, the inhibition in experiment [2] came to 50%. In addition, the half-inhibitory concentration (IC50) in experiment [4] is 43 µM.
For the compound `N=C(N)c1ccc(OCCCOc2ccc(C(=N)N)cc2)cc1`, the inhibition entry in experiment [1] and in experiment [2] was “inactive” in each case.
Regarding `N=C(N)c1ccc(/C=C/c2ccc(C(=N)N)cc2)cc1` [STILBAMIDINE], in experiment [4], the IC50 is 712 µM.
In the case of `CC(CCCOc1ccc(C(=N)N)cc1)Oc1ccc(C(=N)N)cc1` (configuration not stated), the inhibition entry in experiment [1] and in experiment [2] was “inactive” each time.
Take `N=C(N)c1ccc(Oc2ccc(C(=N)N)cc2)cc1`: the inhibition entry in experiment [1] and in experiment [2] was “inactive” throughout.

For the origin of these results see ChEMBL document CHEMBL4138063, “Discovery of Decamidine as a New and Potent PRMT1 Inhibitor” (Medchemcomm, 2017).
